Data reported in patent US20100203125A1, “SYNERGISTIC ANTIBACTERIAL FORMULATION AND A METHOD OF MAKING THE SAME” (priority 2004, published 2010).
Converted amounts (≈) assume the structure as drawn. Like-named read-outs stand apart in the source and are kept apart here.

Experiments:
[1] = Plasma concentration levels of cefixime and dicloxacillin formulation (Table 4); settings: in vivo
[2] = cited from earlier work
[3] = in vivo, cited from earlier work; for Bioavailability after oral administration / Serum half-life / half life: human
[4] = in vivo; cited from earlier work
plasma proteins = settings: cited from earlier work
[5] = Clinical Trial 2, comparative plasma concentration study; settings: for Plasma concentration from the formulation compared with conventional separate dosing: human, in vivo
Method: Comparative studies were conducted on 24 healthy male patients who were pre-tested for non-allergic conditions against Betalactam and Cephalsporin antibiotics.

Neisseria gonorrhoeae = settings: cited from earlier work
Streptococcus pneumoniae = settings: cited from earlier work
Staphylococcus aureus = settings: cited from earlier work
Streptococcus pyogenes = settings: cited from earlier work
[6] = tested on: Staphylococcus epidermidis; settings: cited from earlier work
E. coli [C1] = assay: Zone of inhibition study; assay type: cell-based; settings: 37° C. 24 hours, excluding well diameter
Method: (§1) Quantitative methods of susceptibility testing that require measurements of zone diameters give the most precise estimates of antibiotic susceptibility. Zone of inhibition study was performed Cefixime and dicloxacillin combination with suitable concentration and compare with the zone of inhibition of individual antibiotic to study the synergy. Nutrient Agar plates (duplicate sets) were used for inoculation of microorganism culture using spread plate technique. Wells of 6.0 mm diameter were made in agar plate and test and standard antibiotics preparations were placed in the respective wells. Suitable control plates and plates with no antibiotics were simultaneously then inoculated after appropriate dilution on separate nutrient agar plates (duplicate sets) using spread plate technique. […] All the diameters [zone of inhibition] were measure excluding the well diameter. Four species of bacteria namely E. coli [C1], S. aureus [C2], Salmonella typhimurium [C3], and S. epidermidis [C4] were selected for zone of inhibition study. […] There was no zone of inhibitions found for control plates.

S. epidermidis [C4] = assay: Zone of inhibition study; assay type: cell-based; settings: 37° C. 24 hours, excluding well diameter
Method: as §1

[7] = tested on: Salmonella typhimurium [C3]; assay: Zone of inhibition study; assay type: cell-based; settings: 37° C. 24 hours, excluding well diameter
Method: as §1

S. aureus [C2] = assay: Zone of inhibition study; assay type: cell-based; settings: 37° C. 24 hours, excluding well diameter
Method: as §1

Compound: C=CC1=C(C(=O)O)N2C(=O)[C@@H](NC(=O)/C(=N\OCC(=O)O)c3csc(N)n3)[C@H]2SC1 [Cefixime]
- concentration at 0 h [1]: 0 ng/mL
- concentration at 0.5 h [1]: 360 ng/mL
- concentration at 1 h [1]: 520 ng/mL
- concentration at 2 h [1]: 1340 ng/mL
- concentration at 3 h [1]: 1620 ng/mL
- concentration at 4 h [1]: 1840 ng/mL
- concentration at 6 h [1]: 1560 ng/mL
- concentration at 8 h [1]: 980 ng/mL
- concentration at 10 h [1]: 600 ng/mL
- concentration at 12 h [1]: 500 ng/mL
- concentration at 14 h [1]: 350 ng/mL
- concentration at 16 h [1]: 200 ng/mL
- concentration at 20 h [1]: 0 ng/mL
- concentration at 24 h [1]: 0 ng/mL
- Solubility in dehydrated alcohol [2]: sparingly soluble
- Solubility in ethyl acetate [2]: practically insoluble
- Solubility in methyl alcohol [2]: freely soluble
- Solubility in water [2]: slightly soluble
- Oral absorption ([3]; po): 50%
- Oral dose absorbed from the gastrointestinal tract ([3]; po): 40-50%
- Eliminated by nonrenal mechanisms [3]: Up to 60%
- Plasma half-life [3]: 180 min
- Urinary Excretion [3]: 34-48%
- Vol Distribution [3]: 0.30 ± 0.03
- Acute toxicity [4]: negligibly low
- Plasma protein binding (plasma proteins; Table 1): 60-70%
- Plasma concentration from the formulation compared with conventional separate dosing [5]: better
- Blood plasma conc ([5]; separate tablets (Cloxacillin 250 mg × 2, Cefixime 200 mg), 1 hrs): 0.46
- Blood plasma conc ([5]; separate tablets (Cloxacillin 250 mg × 2, Cefixime 200 mg), 2 hrs): 1.23
- Blood plasma conc ([5]; separate tablets (Cloxacillin 250 mg × 2, Cefixime 200 mg), 3 hrs): 1.52
- Blood plasma conc ([5]; separate tablets (Cloxacillin 250 mg × 2, Cefixime 200 mg), 4 hrs): 1.79
- Blood plasma conc ([5]; separate tablets (Cloxacillin 250 mg × 2, Cefixime 200 mg), 6 hrs): 1.14
- Blood plasma conc ([5]; separate tablets (Cloxacillin 250 mg × 2, Cefixime 200 mg), 8 hrs): 0.88
- Blood plasma conc ([5]; separate tablets (Cloxacillin 250 mg × 2, Cefixime 200 mg), 9 hrs): 0.72
- Blood plasma conc ([5]; separate tablets (Cloxacillin 250 mg × 2, Cefixime 200 mg), 10 hrs): 0.6
- Blood plasma conc ([5]; separate tablets (Cloxacillin 250 mg × 2, Cefixime 200 mg), 12 hrs): 0.5
- Blood plasma conc ([5]; separate tablets (Cloxacillin 250 mg × 2, Cefixime 200 mg), 14 hrs): 0.36
- Blood plasma conc ([5]; separate tablets (Cloxacillin 250 mg × 2, Cefixime 200 mg), 16 hrs): 0.2
- Blood plasma conc ([5]; separate tablets (Cloxacillin 250 mg × 2 at 6 hour interval, Cefixime 200 mg), 0 hrs, average of 24): 0
- Blood plasma conc ([5]; synergetic formulation (Cloxacillin 500 mg, Cefixime in combination), 0 hrs, average of 24): 0
- Blood plasma conc ([5]; synergetic formulation (Cloxacillin 500 mg, Cefixime in combination), 1 hrs): 0.7
- Blood plasma conc ([5]; synergetic formulation (Cloxacillin 500 mg, Cefixime in combination), 2 hrs): 1.4
- Blood plasma conc ([5]; synergetic formulation (Cloxacillin 500 mg, Cefixime in combination), 3 hrs): 1.58
- Blood plasma conc ([5]; synergetic formulation (Cloxacillin 500 mg, Cefixime in combination), 4 hrs): 2.01
- Blood plasma conc ([5]; synergetic formulation (Cloxacillin 500 mg, Cefixime in combination), 6 hrs): 1.52
- Blood plasma conc ([5]; synergetic formulation (Cloxacillin 500 mg, Cefixime in combination), 8 hrs): 1.03
- Blood plasma conc ([5]; synergetic formulation (Cloxacillin 500 mg, Cefixime in combination), 9 hrs): 0.91
- Blood plasma conc ([5]; synergetic formulation (Cloxacillin 500 mg, Cefixime in combination), 10 hrs): 0.72
- Blood plasma conc ([5]; synergetic formulation (Cloxacillin 500 mg, Cefixime in combination), 12 hrs): 0.6
- Blood plasma conc ([5]; synergetic formulation (Cloxacillin 500 mg, Cefixime in combination), 14 hrs): 0.34
- Blood plasma conc ([5]; synergetic formulation (Cloxacillin 500 mg, Cefixime in combination), 16 hrs): 0.18

Compound: Cc1onc(-c2ccccc2Cl)c1C(=O)N[C@@H]1C(=O)N2[C@@H]1SC(C)(C)[C@@H]2C(=O)O [Cloxacillin sodium, chlorphenylmethyl isoxazolyl penicillin sodium]
- Bioavailability after oral administration ([3]; po): 37-60%

Compound: Cc1onc(-c2ccccc2Cl)c1C(=O)N[C@@H]1C(=O)N2[C@@H]1SC(C)(C)[C@@H]2C(=O)O [Cloxacillin]
- MIC90 (Neisseria gonorrhoeae): 0.1 µg/mL (≈ 0.229 µM)
- MIC90 (Streptococcus pneumoniae): 0.25 µg/mL (≈ 0.574 µM)
- Serum half-life / half life [3]: 24 to 48 min
- Urinary clearance rate ([3]; iv): 162.2 mL/min
- Cmax [3]: 8000 ng/mL
- Half life [3]: 38 min
- Plasma half life [3]: 0.5 h-0.65
- Plasma half-life [3]: 30 to 90 min
- MIC90 (Staphylococcus aureus): 0.1 µg/mL (≈ 0.229 µM)
- MIC90 (Streptococcus pyogenes): 0.1 µg/mL (≈ 0.229 µM)
- MIC90 [6]: 0.1 µg/mL (≈ 0.229 µM)
- Plasma protein binding (plasma proteins; plasma): 93-95%
- Plasma concentration from the formulation compared with conventional separate dosing [5]: significantly better plasma concentration

Compound: Cc1onc(-c2c(Cl)cccc2Cl)c1C(=O)N[C@@H]1C(=O)N2[C@@H]1SC(C)(C)[C@@H]2C(=O)O [Dicloxacillin]
- Bioavailability after oral administration ([3]; po): 60-80%
- Oral absorption ([3]; po): 60-80%
- Excreted into the urine [3]: about 60%
- Plasma half life [3]: 0.5 to 1 h
- Plasma half-life [3]: 30 to 90 min
- Urinary Excretion [3]: 60%
- Vol Distribution [3]: 0.1 mL/g
- Volume of distribution [3]: 0.1 mL/g
- Zone of inhibition (E. coli [C1]): 9 mm
- Zone of inhibition (S. epidermidis [C4]): 15 mm
- Zone of inhibition [7]: 10 mm
- Zone of inhibition (S. aureus [C2]): 15 mm
- concentration at 0 h (in vivo): 0 ng/mL
- concentration at 0.5 h (in vivo): 700 ng/mL
- concentration at 1 h (in vivo): 810 ng/mL
- concentration at 2 h (in vivo): 2260 ng/mL
- concentration at 3 h (in vivo): 3100 ng/mL
- concentration at 4 h (in vivo): 3940 ng/mL
- concentration at 6 h (in vivo): 4100 ng/mL
- concentration at 8 h (in vivo): 2960 ng/mL
- concentration at 10 h (in vivo): 2400 ng/mL
- concentration at 12 h (in vivo): 1380 ng/mL
- concentration at 14 h (in vivo): 630 ng/mL
- concentration at 16 h (in vivo): 300 ng/mL
- concentration at 20 h (in vivo): 0 ng/mL
- concentration at 24 h (in vivo): 0 ng/mL
- Bound to plasma proteins (plasma proteins; plasma): 90-98%
- Plasma protein binding (plasma proteins; plasma): 90-98%

Compound: Cc1onc(-c2ccccc2)c1C(=O)NC1C(=O)N2[C@@H]1SC(C)(C)[C@@H]2C(=O)[O-].[Na+] (stereo partly drawn) [Oxacillin sodium]
- Bioavailability after oral administration ([3]; po): 30-35%

Compound: Cc1onc(-c2ccccc2)c1C(=O)N[C@@H]1C(=O)N2[C@@H]1SC(C)(C)[C@@H]2C(=O)O [oxacillin]
- Serum half-life / half life [3]: 18 to 48 min
- Bound to plasma proteins (plasma proteins; plasma): 89-94%
